Broadly, the inhibition is the drop in the measured response relative to a control, in per cent. A low value points to little suppression. Broadly, the IC50 is the midpoint of a concentration-inhibition curve.

T1 sequence (P37288 whole entry): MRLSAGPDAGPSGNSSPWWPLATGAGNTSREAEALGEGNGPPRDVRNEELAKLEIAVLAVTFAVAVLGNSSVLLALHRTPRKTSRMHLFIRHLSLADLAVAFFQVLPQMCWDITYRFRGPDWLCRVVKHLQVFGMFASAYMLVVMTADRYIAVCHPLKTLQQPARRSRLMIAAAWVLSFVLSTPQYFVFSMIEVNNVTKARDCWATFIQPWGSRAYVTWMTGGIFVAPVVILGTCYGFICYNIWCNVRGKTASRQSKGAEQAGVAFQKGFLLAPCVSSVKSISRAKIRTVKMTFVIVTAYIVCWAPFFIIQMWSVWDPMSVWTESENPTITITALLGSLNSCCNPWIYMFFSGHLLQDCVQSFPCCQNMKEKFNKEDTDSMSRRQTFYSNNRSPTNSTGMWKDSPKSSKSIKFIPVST

The first test has as its target T1, human vasopressin V1a receptor subtype (Homo sapiens, UniProt P37288).
T1 construct: host or cells: CHO cells; pZeoSV vector for the Thibonnier line
The test is described as follows: Vasopressin binding in CHO cell membranes expressing human vasopressin V1a subtype receptors ([3H]Manning ligand radioligand binding). As to conditions: @ 100 nM. The source says: Vasopressin Binding in Chinese Hamster Ovary Cell Membranes Expressing Human Vasopressin V1a Subtype Receptors
Chinese hamster ovary cells (CHO cells) stably transfected with the human vasopressin V1a subtype receptors were either obtained from BioSignal Inc., 1744 rue Williams, Montreal, Quebec, Canada or obtained from M. Thibonnier, Case Western Reserve University School of Medicine, Cleveland, Ohio.
A. Passaging and Amplification of Cells
CHO cells transfected with the human vasopressin V1a subtype receptors obtained from M. Thibonnier (pZeoSV vector) are allowed to grow to confluency (approx. >90%) in T-150 flasks under sterile conditions, in a cell culture medium of F-12 Nutrient Mixture (HAM) with L-glutamine (Gibco Cat. #11765-054) containing 15 mM HEPES (Gibco Cat. #15630-080), 1% antibiotic/antimycotic (add 5 mL 100×, Gibco Cat. #15240-062 per 500 mL F-12), 250 μg/mL Zeocin (add 1.25 mL of 100 mg/mL Invitrogen R-250-01 per 500 mL F-12) and 10% Fetal Bovine Serum (Qualified, heat inactivated, Gibco Cat. #16140-063). The medium is removed by aspiration and the cells are washed with 10 mL of Hank's Balanced Salt solution (Gibco Cat. #14175-095). The salt solution is removed by aspiration and the cells are trypsinized with 5 mL of trypsin-EDTA (0.05% trypsin, 0.53 mM EDTA-4Na, Gibco Cat. #25300-070) for 1 min. The trypsin is removed by aspiration and the cells dislodged by tapping. Cell Culture medium (e.g. 30 mL for 1:30 split) is immediately added and mixed well to inactivate trypsin. 1 mL of detached cells is added to new culture flasks containing fresh cell culture medium (e.g., into 25 mL per T-150 flask), and mixed gently. The cells are incubated at 37° C. in 5% CO2. The medium is changed at 3 to 4 days interval (or as appropriate). The cells grow to confluency (approx. >75%-95%) within 7-8 days. All steps are done under sterile conditions.
The cells are washed twice gently with Hank's Balanced Salt solution (e.g,. use 10 mL per T-150 flask). The excess is removed and the cells are bathed for 15-30 min. in an enzyme-free Cell Dissociation Buffer (e.g. use 8 mL Hank's Based, Gibco Cat. #13150-016 per T-150 flask) until the cells are loosened. The contents are transferred to centrifuge tubes (50 mL) kept in an ice bath. All subsequent steps are done at 4° C. The tubes are centrifuged at 300×g for 15 min (1380 rpm on SORVAL, Model RT6000D, using the rotor for 50 mL tubes). The supernatant is discarded and the cells suspended in homogenizing buffer(10 mM Tris-HCl containing 0.25 M sucrose and 1 mM EDTA, pH 7.4) ensuring that the volume of the buffer is about ten times the volume of the cell pellet. The cells are pooled into a centrifuge tube (50 mL) and homogenized with Polytron at setting 6 for 10 sec. The homogenate is transferred into a Potter-Elvjehm homogenizer and homogenized with 3 strokes. The homogenate is centrifuged at 1500×g for 10 min at 4° C. (3100 rpm using SORVAL, model RT6000D, using the rotor for 50 mL tubes). The pellet is discarded. The supernatant is centrifuged at 100,000×g for 60 min. at 4° C. (Beckman L8-80M ultracentrifuge; spin at 37,500 rpm with rotor type 70 Ti for 50 mL tubes; 38,000 rpm with type 80Ti for 15 mL tubes; or 35,800 rpm with rotor type 45Ti). The supernantant is discarded and the pellet suspended in 3 to 4 mL of Tris buffer (50 mM TRIS—HCl, pH 7.4). The protein content is estimated by the Bradford or Lowry method. The volume of the membrane suspension is adjusted with the membrane buffer (50 mM Tris-HCl containing 0.1% BSA and 0.1 mM PMSF) to give 3.0 mg/mL (or as appropriate) of protein. The membranes are aliquoted and stored at −70° C.
C. Radioligand Binding Assay […]
`COc1ccccc1-c1ccc(C(=O)N2Cc3ccc(C(=O)N4CCN(CCO)CC4)n3Cc3ccccc32)cc1` [Example 47, [4-(2-Hydroxyethyl)-1-piperazinyl]{10-[(2′-methoxy[1,1′-biphenyl]-4-yl)carbonyl]-10,11-dihydro-5H-pyrrolo[2,1-c][1,4]benzodiazepin-3-yl}methanone] returned an inhibition at 0.1 µM of 12%. Turning to `Cc1cc(C(=O)N2Cc3ccc(C(=O)N4CCN(CCO)CC4)n3Cc3ccccc32)ccc1-c1ccccc1C(F)(F)F` [Example 48, [4-(2-Hydroxyethyl)-1-piperazinyl](10-{[2-methyl-2′-(trifluoromethyl)[1,1′-biphenyl]-4-yl)carbonyl}-10,11-dihydro-5H-pyrrolo[2,1-c][1,4]benzodiazepin-3-yl)methanone], the inhibition at 0.1 µM was determined as 7%. The compound `COc1cccc(-c2cc(OC)c(C(=O)N3Cc4ccc(C(=O)N5CCN(CCO)CC5)n4Cc4ccccc43)cc2Cl)c1` [Example 49, {10-[(6-Chloro-3,3′-dimethoxy[1,1′-biphenyl]-4-yl)carbonyl]-10,11-dihydro-5H-pyrrolo[2,1-c][1,4]benzodiazepin-3-yl}[4-(2-hydroxyethyl)-1-piperazinyl]methanone] showed an inhibition at 0.1 µM of 1%. In turn, `COc1cccc(-c2ccc(C(=O)N3Cc4ccc(C(=O)N5CCN(CCO)CC5)n4Cc4ccccc43)cc2OC)c1` [Example 50, {10-[(2,3′-Dimethoxy[1,1′-biphenyl]-4-yl)carbonyl]-10,11-dihydro-5H-pyrrolo[2,1-c][1,4]benzodiazepin-3-yl}[4-(2-hydroxyethyl)-1-piperazinyl]methanone] returned an inhibition at 0.1 µM of 52%. As to `COc1cc(C(=O)N2Cc3ccc(C(=O)N4CCN(CCO)CC4)n3Cc3ccccc32)ccc1-n1c(C)ccc1C` [Example 52, {10-[4-(2,5-Dimethyl-1H-pyrrol-1-yl)-3-methoxybenzoyl]-10,11-dihydro-5H-pyrrolo[2,1-c][1,4]benzodiazepin-3-yl}[4-(2-hydroxyethyl)-1-piperazinyl]methanone], the inhibition at 0.1 µM was 7%.

Staying with this test, now noted: value printed in parentheses.
For the compound “{(2S)-1-[(10-{[2-Methoxy-2(trifluoromethyl)[1,1′-biphenyl]-4-yl]carbonyl}-10,11-dihydro-5H-pyrrolo[2,1-c][1,4]benzodiazepin-3-yl)carbonyl]pyrrolidin-2-yl}-methanol [Example 36]”, the IC50 was 1510 nM.
